In patent US10821128B2, “Treatment of cancer by systemic administration of Dbait molecules” (ONXEO, priority 2016, dated 2020):

Columns and labels:
HCT116 [1] = assay: In vitro proliferation assay (live cell counts); assay type: cell-based, human
Protocol: (§1) CRC cell lines; HT29 (mutated p53, ATCC: HTB-38) and HCT116 (wild-type p53, ATCC: CCL-247) were purchased directly from ATCC. These cells were authenticated by ATCC by generating human short tandem repeat profiles by simultaneously amplifying multiple STR loci and amelogenin (for gender determination) using the Promega PowerPlex® Systems. These cells were cultured in the laboratory for less than 6 months from the date of purchase in DMEM medium supplemented with 10% fetal bovine serum, 1% sodium pyruvate, […] (Invitrogen, Carlsbad, Calif.), when the current study was performed. HT29 cell line stably expressing luciferase was established in-house using a pGL4.5 luciferase reporter vector (luc2/CMV/Hygro) (Promega). HT29 luciferase cells were supplemented with 200 μg/ml hygromycin B. All cell lines were additionally subjected to mycoplasma testing in-house and were free of mycoplasma contamination (Biovalley, France).
(§2) Cells were transfected with 2.5 μgs of Dbait (5′-[…]-(H) […]-3′ SEQ ID No 9) (Eurogentec, Belgium) where H is a hexaethyleneglycol linker and underlined nucleotides are phosphorothioates. The cells were sham transfected with an 8 bp oligonucleotide control (8H) complexed with 11 kDa polyethyleneimine (PEI) as previously described (Quantz et al, 2009, PloS one, 4, e6298).
(§3) Cells were seeded at a density of 3×10^4 cells/60 mm dishes and transfected with Dbait. Following treatment, cells were washed and left untreated or treated with a combination of 5 μM of oxaliplatin (OXA, Sigma) and 2.5 μM of 5-fluouracil (5-FU, Sigma) and live cell counts were performed on days 1, 3, 5, 6, 7 and 9.

HT29 [2] = assay: In vitro proliferation assay (live cell counts); assay type: cell-based, human
Protocol: as §1, §2, §3

HCT116 [3] = assay: Clonogenic survival assay; assay type: cell-based, human
Protocol: as §1, §2
(§4) Cells were transfected with Dbait and left untreated or treated with 5 μM of OXA and 2.5 μM of 5-FU for 1 hr. The cells were diluted, allowed to grow for 14 days and the clones were stained with crystal violet and counted.

HT29 [4] = assay: Clonogenic survival assay; assay type: cell-based, human
Protocol: as §1, §2, §4

[5] = tested on: pan-nuclear phosphorylation of H2AX in HT29; assay: γH2AX immunofluorescence (DNA-PK activation); assay type: cell-based, human
Protocol: (§5) The inventors have previously shown that Dbait acts by activating DNA-PK kinase, which phosphorylate numerous targets including the histone variant H2AX.
(§6) γH2AX immunofluorescence was performed as described previously using a monoclonal anti-phospho-Histone H2A.X (Ser139) Antibody, clone JBW301 (1:500 dilution; 05-636, Millipore, USA) (9).

[6] = tested on: pan-nuclear phosphorylation of H2AX in HCT116; assay: γH2AX immunofluorescence (DNA-PK activation); assay type: cell-based, human
Protocol: as §5, §6

MDA-MB-231 tumor = assay: DT01 with carboplatin in MDA-MB-231 TNBC model; assay type: in vivo, athymic nude mouse; details: carboplatin alone treated group; 177 days of the experiment
Protocol: Treatment was administered in 3 cycles with a 2 week gap between cycles either alone or in association with carboplatin. Only one dose of carboplatin was injected per cycle of DT01 treatment (2nd day of each cycle). The dose of carboplatin was 50 mg/kg per cycle. Treatments were performed over 7 weeks (3 cycles of treatment).
Antitumor activity was evaluated by measuring tumor volume during and after treatment. DT01 was administered intraperitoneally during 3 sessions of 5 days treatment with two weeks of rest between each session. Carboplatin was administered once a week on the second day of each DT01 treatment cycle.
The MDA-MB231 cell line is derived from a human breast adenocarcinoma and can be ordered at the ATCC. The MDA-MB231 cells were grafted in the mammary fat pad with 10·10^6 cells re-suspended in 0.1 ml of DMEM with no additive. The athymic nude mouse is immunodeficient, thus enabling the xenotransplantation and growth of human tumors.

[7] = single treatment (Dbait alone, or OXA and 5-FU alone)
[8] = combination of Dbait with chemotherapy (OXA/5-FU), p=0.05

Row | Compound | cell proliferation (number of living cells) (HCT116 [1]; [7]) | level of proliferation compared to chemotherapy alone (HCT116 [1]; transfected with Dbait prior to OXA/5-FU, day 9, p<0.001) | cell proliferation (number of living cells) (HT29 [2]; [7]) | level of proliferation compared to chemotherapy alone (HT29 [2]; transfected with Dbait prior to OXA/5-FU, day 9, p<0.02) | lethality (HCT116 [3]; Dbait treatment alone, p<0.01) | clonogenic survival (HCT116 [3]; [8]) | clonogenic survival (HT29 [4]; [8]) | clonogenic survival (HT29 [4]; single treatment (Dbait alone, or chemotherapy alone p=0.08)) | activity by pan-nuclear phosphorylation of H2AX [5] | activity by pan-nuclear phosphorylation of H2AX [6] | abnormal death (MDA-MB-231 tumor)
1 | 5′-GCTGTGCCCACAACCCAGCAAACAAGCCTAGA-(H) TCTAGGCTTGTTTGCTGGGTTGTGGGCACAGC-3′ (hexaethyleneglycol linker; phosphorothioates; nucleic acid molecule Id; note=“at the 3′ end of the complementary strand the three last nucleotides with phosphorothioate or methylphosphonate backbone”; modified_base (1)..(3) mod_base= phosphorothioate or methylphosphonate backbone; (1)..(1) at the 5′ end, Lm = carboxamido oligoethylene glycol + C = single or double chain fatty acids, cholesterol, sugars, peptides or proteins; stem_loop (1)..(3) [Dbait] | no effect on cell proliferation | significantly reduced | no effect on cell proliferation | significantly reduced | approximately 30% | significant reduction in survival | significant reduction in survival | no significant effect | confirmed the activity | confirmed the activity | 
2 | N.N.O=C([O-])C1(C(=O)[O-])CCC1.[Pt+2] [carboplatin] |  |  |  |  |  |  |  |  |  |  | one
